Earlier results on one molecule are cited in patent US6627208B2, “Biocidal material with improved activity” (Eastman Kodak Company, priority 1999, dated 2003).

The conditions of this data set: limit of solubility.

The structures appear in SMILES notation. In brackets after ≈: the same amount, converted by molar mass.

Consider `CCCCCCCCn1sc(Cl)c(Cl)c1=O` [Kathon 287T®], for which the solubility in water was 5 µg/mL (≈ 17.7 µM).
